Source: patent publication US20090227606A1, “Methods for Preventing or Treating Acute and Chronic Pain” (priority 2006, published 2009)
“Also recorded” adds a separate entry of the source.

How the values were obtained:
GLT-1 mRNA = assay: Real Time RT-PCR of cultured astrocytes, GLT-1 mRNA; format: cell-based, rat
Protocol: After approximately 14 days (2 days after subplating into plates, DIV 14) astrocytes had formed a confluent monolayer. […] Phase contrast microscopy was then carried out in order to assess the morphology of cells after the various treatments. Length of astrocyte processes was quantified by measuring all processes in 2-3 phase contrast images/group by an independent observer, blinded to the treatment groups using Image J v1.34s (National Institutes of Health, Bethesda, Md.).
Total RNA was isolated from astrocyte cultures using the Qiagen RNeasy mini-kit (Qiagen Inc., Valencia, Calif.) according to the manufacturer's protocol for isolation of total RNA from animal cells. Reverse transcription (RT) was carried out using the high-capacity cDNA archive kit (Applied Biosystems, Foster City, Calif.) according to the vendor's protocol. Real-time RT-PCR reactions were carried out in a total reaction volume of 25 μL containing a final concentration of 1.5 U Platinum Taq DNA polymerase (Invitrogen Corporation, Carlsbad, Calif.); 20 mM Tris HCl (pH 8.4); 50 mM KCl; 3 mM MgCl2; 200 μM dGTP, dCTP, and dATP; 400 μM dUTP and 1 U of UDG (uracyl DNA glycosylase); 900 nM of forward and reverse primers; 300 nM Taqman probe; and 5 μL of cDNA (50 ng) from the RT step. The iCycler™ Multicolor Real-Time PCR detection system (Bio-Rad Laboratories, Hercules, Calif.) was used to quantify PCR product. The fluorescence and threshold values (CT) obtained were used to compare the relative amount of target mRNA in experimental groups to those of controls using the 2^−ΔΔC^T method (Livak, K. J. and T. D. Schmittgen. 2001. Methods 25:402-408). Each experiment was run twice and samples were run in duplicate. For each sample, the mean CT value for the control gene (GAPDH) was then subtracted from the mean CT value for the gene of interest (GLT-1, GLAST) to obtain a ΔCT value. The ΔCT values for the control group (untreated) were then averaged and subtracted from the ΔCT for the experimental groups to obtain the ΔΔCT. The relative fold change from control was then expressed by calculation of 2^−ΔΔC^T for each sample and the results are expressed as the group mean fold change±SEM.

GLT-1 = assay: Western blot of ipsilateral lumbar spinal cord, GLT-1 protein; format: in vivo, rat; conditions: day 12 post-transection
Protocol: (§1) Tissue was collected from 4-5 rats/group on postoperative days 4 or 12. In order to obtain both mRNA and protein from the same tissue sample, the L5 region of the spinal cord (ipsilateral to the injury), was isolated and placed in PBS supplemented with protease inhibitor cocktail (1:1000, Sigma Chemical Co., St. Louis, Mo.) and RNase inhibitor (0.75 U/μL Ambion, Austin, Tex.). Samples were sonicated in five one-second bursts at half-maximal power, centrifuged at 6500 rpm for 15 minutes at 4° C. Protein-containing supernatants were collected and stored at −80° C. until further processing by Western blot analysis. The pellet was treated with TRIzol reagent (Invitrogen, Carlsbad, Calif.) for the extraction of total RNA according to the manufacturer's specifications.
Protein obtained from L5 lumbar spinal cord was quantified using the Lowry method (DC assay, Bio-Rad, Hercules, Calif.). Forty micrograms of protein and standard protein markers were subjected to SDS polyacrylamide gel electrophoresis (7.5% gel, Bio-Rad, Hercules, Calif.) and id transferred to polyvinylidene difluoride (PVDF, Bio-Rad, Hercules, Calif.) filters. Nonspecific binding was blocked by incubation with 5% milk/PBS-T at room temperature for 1 hour followed by incubation overnight at 4° C. with monoclonal guinea pig anti-GLT-1 or guinea pig anti-GLAST (1:2500, Chemicon). […]

GLAST mRNA = assay: Real Time RT-PCR of ipsilateral lumbar spinal cord, GLAST mRNA; format: in vivo, rat
Protocol: as §1, with “The pellet was treated with TRIzol reagent (Invitrogen, Carlsbad, Calif.) for the extraction of total RNA according to the manufacturer's specifications.” left out
Real time RT-PCR reactions were carried out in a total reaction volume of 25 μL containing a final concentration of 1.5 U Platinum Taq DNA polymerase (Invitrogen Corporation, Carlsbad, Calif.); 20 mM Tris HCl (pH 8.4); 50 mM KCl; 3 mM MgCl2; 200 μM dGTP, dCTP, and dATP; 400 μM dUTP and 1 U of UDG (uracyl DNA glycosylase); 900 nM of forward and reverse primers; 300 nM Taqman probe; and 5 μL of a 10-fold dilution of cDNA (50 ng) from the RT step. The iCycler™ Multicolor Real-Time PCR detection system (Bio-Rad, Hercules, Calif.) was used to quantify PCR product. […] The relative fold change from control was then expressed by calculation of 2^−ΔΔC^T for each sample and the results are expressed as the group mean fold change±SEM.

CCCn1cnc2c1c(=O)n(CCCCC(C)=O)c(=O)n2C [propentofylline]
increase in GLT-1 mRNA (GLT-1 mRNA; day 3, high dose): 3 fold | induction of GLT-1 mRNA (GLT-1 mRNA; day 7, high dose): 20 fold | GLT-1 mRNA level, in words (GLT-1 mRNA; propentofylline 10, 100, 1000 μM, db-cAMP 250 μM, relative to GAPDH): enhancement of GLT-1 and GLAST mRNA levels in a dose-dependent manner; also recorded: dose-dependently induced GLT-1 and GLAST at the mRNA level | GLT-1 protein compared to L5 transection alone (GLT-1): reversed with propentofylline treatment; also recorded: significantly elevated | GLAST mRNA in lumbar spinal cord (GLAST mRNA; day 4, compared to L5 spinal nerve transection alone): slight decrease in GLAST mRNA | GLAST mRNA levels (FIG. 9B legend) (GLAST mRNA; days 4 and 12 post-transection): unaffected
